These results are taken from ChEMBL document CHEMBL1201862, “PubChem BioAssay data set” (2004).

Test systems include KM12; MDA-N; MDA-MB-231; SNB-19; NCI-H226; NCI-H460; MCF7; HCC 2998; UACC-257; HCT-116; MDA-MB-435; OVCAR-5; SK-MEL-2; SN12C; MOLT-4; CAKI-1; A498; A549; LOX IMVI; SW-620.
Common to all, as to experiment: DTP human tumour cell line panel, 48 h

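Tested at 5 concentrations; 48 h exposure; 96-well plates; endpoints linearly interpolated, else capped at highest concentration. At the GI50, growth is halved.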 Calls of active or inactive are those of the source. No stated cut-off is given here; in the data, active = GI50 up to about 1.1 µM and inactive = higher.

One may read the GI50 as the concentration at which growth is held to half of that of the control. On to `OCc1ccc(-c2ccc(-c3ccc(CO)s3)o2)s1`, for which the GI50 with KM12 was 20.7 µM (inactive); in the test on MDA-N it was 5.06 µM (inactive); in the test on MDA-MB-231, 41.4 µM (inactive); with SNB-19, 28.8 µM (inactive); in the test on NCI-H226, 0.0375 µM (active); with NCI-H460 it was 0.0557 µM (active). The GI50 with MCF7 is 0.0336 µM (active); in the test on HCC 2998, 0.394 µM (active); in the test with UACC-257, 0.0254 µM (active); in the test on HCT-116 it was 0.0622 µM (active); in the test with MDA-MB-435, 4.05 µM (inactive); in the test on OVCAR-5, 0.02 µM (active). Also, the GI50 in the test on SK-MEL-2 is 23.9 µM (inactive); in the test on SN12C, 5.13 µM (inactive); in the test with MOLT-4, 3.21 µM (inactive); with CAKI-1 it was 0.0116 µM (active); in the test with A498 it was 0.0151 µM (active); in the test with A549, 2.36 µM (inactive). For the same compound, the GI50 with LOX IMVI was 21.8 µM (inactive); in the test on SW-620, 0.224 µM (active).

With `CC(=O)c1sc2c(c1OC(=O)c1ccccc1)c(=O)n(-c1ccccc1)c(=S)n2-c1ccccc1`, the GI50 in the test on KM12 is 33.1 µM (inactive); with MDA-N it was 6.4 µM (inactive); in the test with MDA-MB-231, 7.93 µM (inactive); in the test with SNB-19, 4.84 µM (inactive); in the test with NCI-H226 it was 2.62 µM (inactive); in the test on NCI-H460, 11.2 µM (inactive). Further, the GI50 in the test on MCF7 is 35.7 µM (inactive); in the test with HCC 2998 it was 17.3 µM (inactive); in the test on UACC-257 it was 4.38 µM (inactive); in the test on HCT-116, 13.4 µM (inactive); with MDA-MB-435, 4.24 µM (inactive); with OVCAR-5, 3.82 µM (inactive). Besides, the GI50 in the test with SK-MEL-2 was 2.79 µM (inactive); in the test on SN12C, 5.78 µM (inactive); in the test with MOLT-4, 2.26 µM (inactive); in the test on CAKI-1 it was 8.43 µM (inactive); in the test with A498 it was 2.49 µM (inactive); with A549 it was 35.3 µM (inactive). Further, the GI50 is 2.26 µM (inactive) with LOX IMVI and 15.2 µM (inactive) in the test with SW-620.

With `COC(=O)c1cc(CC2Cc3cc4c(cc3C2)CCC4)cc2c1CCC2`, the GI50 in the test with KM12 was 61.5 µM (inactive); in the test with MDA-N, 60.3 µM (inactive); in the test with MDA-MB-231 it was > 100 µM (inactive); with SNB-19, > 100 µM (inactive); in the test on NCI-H226 it was > 100 µM (inactive); in the test on NCI-H460 it was > 100 µM (inactive). Moreover, the GI50 was 89.1 µM (inactive) in the test with MCF7; > 100 µM (inactive) in the test with HCC 2998; 37.2 µM (inactive) in the test on UACC-257; 58.7 µM (inactive) in the test with HCT-116; 48 µM (inactive) in the test on MDA-MB-435; > 100 µM (inactive) with OVCAR-5. Moreover, the GI50 in the test on SK-MEL-2 was 40.4 µM (inactive); in the test with SN12C it was > 100 µM (inactive); in the test on MOLT-4, 23.7 µM (inactive); with CAKI-1, > 100 µM (inactive); with A498 it was > 100 µM (inactive); in the test on A549, > 100 µM (inactive). Further, the figures for the GI50 with LOX IMVI and in the test on SW-620 were 56.5 µM (inactive) and > 100 µM (inactive), respectively.

For the compound `Oc1c(C2=N[C@H]3CCCC[C@@H]3N2)ccc2ccccc12`, the GI50 in the test on KM12 was > 100 µM (inactive); with MDA-N, > 100 µM (inactive); in the test on MDA-MB-231, > 100 µM (inactive); in the test with SNB-19 it was > 40.8 µM (inactive); in the test on NCI-H226, > 100 µM (inactive); in the test on NCI-H460 it was > 100 µM (inactive). Moreover, the GI50 in the test with MCF7, with HCC 2998, in the test with UACC-257, in the test with HCT-116, in the test on MDA-MB-435 and in the test with OVCAR-5 was > 100 µM (inactive) throughout. The GI50 in the test on SK-MEL-2, in the test on SN12C, in the test with MOLT-4, with CAKI-1, in the test on A498 and in the test with LOX IMVI was > 100 µM (inactive) in each case. The GI50 in the test on SW-620 was > 100 µM (inactive).

Turning to `O=C1Nc2ccccc2/C1=N/NC(=S)N1CCCCCC1`, the GI50 with KM12 is 0.283 µM (active); in the test on MDA-N, 2.8 µM (inactive); in the test on MDA-MB-231 it was 0.56 µM (active); in the test with SNB-19 it was 1.54 µM (inactive); in the test on NCI-H226, 1.36 µM (inactive); with NCI-H460, 0.09 µM (active). The GI50 in the test on MCF7 is 1.96 µM (inactive); in the test with HCC 2998, 1.52 µM (inactive); in the test on UACC-257, 2.54 µM (inactive); with HCT-116, 0.312 µM (active); with MDA-MB-435, 1.26 µM (inactive); with OVCAR-5 it was 2.59 µM (inactive). For the same compound, the GI50 in the test on SK-MEL-2 was 1.66 µM (inactive); in the test with SN12C it was 1.42 µM (inactive); in the test with MOLT-4, 0.366 µM (active); in the test on CAKI-1, 1.43 µM (inactive); in the test on A498, 1.07 µM (active); in the test on A549, 0.643 µM (active). Further, the GI50 is 0.507 µM (active) in the test on LOX IMVI and 0.594 µM (active) with SW-620.

As for `Nc1c(Cl)cc(-c2nc3ccccc3s2)cc1Cl`, the GI50 is > 100 µM (inactive) in the test on KM12; > 100 µM (inactive) with MDA-N; 69 µM (inactive) in the test on MDA-MB-231; > 100 µM (inactive) in the test on SNB-19; > 100 µM (inactive) in the test with NCI-H226; 0.556 µM (active) in the test with NCI-H460. Besides, the GI50 with MCF7 was 0.522 µM (active); in the test on HCC 2998, > 100 µM (inactive); in the test with UACC-257 it was > 100 µM (inactive); in the test on HCT-116 it was > 100 µM (inactive); with MDA-MB-435, > 100 µM (inactive); in the test on SK-MEL-2, > 100 µM (inactive). Besides, the GI50 is > 100 µM (inactive) with SN12C; > 100 µM (inactive) in the test with MOLT-4; 0.288 µM (active) in the test on A498; > 100 µM (inactive) with A549; > 100 µM (inactive) with SW-620.

As for `CC1(C)OCN(c2ccc(Cl)cc2)Cn2c1nc1ccccc12`, the GI50 is 1.61 µM (inactive) with KM12; 3.05 µM (inactive) in the test on MDA-N; 3.18 µM (inactive) in the test with MDA-MB-231; > 71.3 µM (inactive) in the test on SNB-19; > 100 µM (inactive) in the test with NCI-H226; > 21.7 µM (inactive) in the test with NCI-H460. Also, the GI50 with MCF7 was 58.9 µM (inactive); in the test on HCC 2998, 3.56 µM (inactive); in the test on UACC-257 it was 39.1 µM (inactive); in the test with HCT-116 it was 15.3 µM (inactive); in the test with MDA-MB-435, 0.611 µM (active); in the test with OVCAR-5 it was > 100 µM (inactive). In addition, the GI50 with SK-MEL-2 was > 54 µM (inactive); with SN12C it was 70.5 µM (inactive); in the test with MOLT-4 it was 11.6 µM (inactive); in the test with A498, 48.9 µM (inactive); with A549, 6.44 µM (inactive); with LOX IMVI it was 3.21 µM (inactive).

As for `O=C(O)C1OC1C(=O)O` (configuration not stated), the GI50 in the test on KM12, with MDA-N, in the test on MDA-MB-231, with SNB-19, in the test with NCI-H226 and in the test with NCI-H460 was > 100 µM (inactive) throughout. Further, the GI50 in the test on MCF7, with HCC 2998, in the test with UACC-257, with HCT-116, in the test with MDA-MB-435 and with OVCAR-5 was > 100 µM (inactive) each time. Moreover, the GI50 with SK-MEL-2, with SN12C, with CAKI-1, in the test with A498, in the test on A549 and in the test on LOX IMVI was > 100 µM (inactive) each time. Moreover, the GI50 in the test with SW-620 is > 100 µM (inactive).

As to `C/C=C/C1OC(O)(C(C)C(O)[C@H](C)C2OC(=O)/C(OC)=C/C(C)=C/[C@@H](C)[C@@H](O)[C@@H](C)C(O)C(C)C/C(C)=C/C=C/C2OC)C[C@@H](OC2CC(O)C(OC(N)=O)C(C)O2)C1C` (some centres not stated), the GI50 in the test on KM12, with MDA-N, with MDA-MB-231, in the test with SNB-19, in the test with NCI-H226 and in the test on NCI-H460 was < 0.01 µM (active) throughout. Further, the GI50 in the test on MCF7, in the test with HCC 2998, in the test on UACC-257, in the test with HCT-116, in the test with MDA-MB-435 and in the test on SK-MEL-2 was < 0.01 µM (active) in each case. The GI50 is < 0.01 µM (active) in the test with SN12C; < 0.01 µM (active) in the test on MOLT-4; < 0.01 µM (active) with CAKI-1; 0.131 µM (active) in the test with A498; < 0.01 µM (active) in the test on A549; < 0.01 µM (active) with LOX IMVI. For the same compound, in the test with SW-620, the GI50 was < 0.01 µM (active).

In the case of `Nc1nc(Cl)cc(Nc2cc(Cl)cc(Cl)c2)n1`, the GI50 is 20.9 µM (inactive) with KM12; 23 µM (inactive) in the test on MDA-N; 20 µM (inactive) in the test with MDA-MB-231; 23.4 µM (inactive) in the test with SNB-19; 18.7 µM (inactive) in the test with NCI-H226; 18.2 µM (inactive) in the test with NCI-H460. Further, the GI50 with MCF7 is 18.1 µM (inactive); in the test with HCC 2998, 18.7 µM (inactive); in the test on UACC-257, 18.5 µM (inactive); in the test on HCT-116, 17.5 µM (inactive); in the test with MDA-MB-435, 20.1 µM (inactive); with OVCAR-5 it was 31.9 µM (inactive). The GI50 in the test on SK-MEL-2 is 18.7 µM (inactive); in the test on SN12C, 22 µM (inactive); in the test with MOLT-4, 22.3 µM (inactive); in the test with CAKI-1, 23.4 µM (inactive); in the test with A498 it was 25.9 µM (inactive); in the test with A549, 24.8 µM (inactive). The GI50 in the test with LOX IMVI was 18.1 µM (inactive); in the test on SW-620, 22.4 µM (inactive).
